Assays:
[1] = Storage stability of the lyophilized preparation at +4° C., HPLC comparison of fresh material and material stored nine months; format: physicochemical; settings: lyophilized form
Source text: FIGS. 4A and 4B disclose HPLC chromatograms of hPTH-1-37. […] FIG. 4B is a chromatogram of hPTH-1-37 stored for nine months. […] Further, FIG. 5 discloses a comparison between the HPLC chromatograms of freshly prepared hPTH-1-37 (A) and a commercially obtainable preparation.

[2] = Stability of the active ingredient in hydrophilic ointment (cream) formulation; format: physicochemical; settings: hydrophilic ointment DAB base; except for methionine-oxidized metabolites
Source text: In one embodiment of the invention, the hemoparatide (hPTH-1-37) or its derivatives are used for preparing a medicament in different galenic application forms, especially as a lyophilizate. In one embodiment of this medicament, a hydrophilic ointment, especially according to the German Pharmacopoeia, is used as a galenic application base. […] These oxidized metabolites also occur as natural PTH forms in the blood plasma, but can be avoided by working under a nitrogen atmosphere, and are free from side effects, being naturally occurring endogenous derivatives.
Hemoparatide was incorporated into this base in concentrations of 0.03% by weight, 0.1% by weight and 0.3% by weight.
These oxidized metabolites also occur as natural PTH forms in the blood plasma, but can be avoided by working under a nitrogen atmosphere, and are free from side effects, being naturally occurring endogenous derivatives.

[3] = Solubility, dissolution time (specification); format: physicochemical
[4] = Phase I trial, tolerability of subcutaneous injection in aqueous solution; format: in vivo; settings: humans

Row | Stability of active ingredient in formulation [2] | Solubility, dissolution time [3] | Compound | Methionine-oxidized metabolites after storage (stability) [1] | Tolerability [4]
1 | very stable | ≦2 min | CC[C@H](C)[C@H](NC(=O)[C@H](CCC(=O)O)NC(=O)[C@H](CO)NC(=O)[C@@H](NC(=O)[C@@H](N)CO)C(C)C)C(=O)N[C@@H](CCC(N)=O)C(=O)N[C@@H](CC(C)C)C(=O)N[C@@H](CCSC)C(=O)N[C@@H](Cc1c[nH]cn1)C(=O)N[C@@H](CC(N)=O)C(=O)N[C@@H](CC(C)C)C(=O)NCC(=O)N[C@@H](CCCCN)C(=O)N[C@@H](Cc1c[nH]cn1)C(=O)N[C@@H](CC(C)C)C(=O)N[C@@H](CC(N)=O)C(=O)N[C@@H](CO)C(=O)N[C@@H](CCSC)C(=O)N[C@@H](CCC(=O)O)C(=O)N[C@@H](CCCNC(=N)N)C(=O)N[C@H](C(=O)N[C@@H](CCC(=O)O)C(=O)N[C@@H](Cc1c[nH]c2ccccc12)C(=O)N[C@@H](CC(C)C)C(=O)N[C@@H](CCCNC(=N)N)C(=O)N[C@@H](CCCCN)C(=O)N[C@@H](CCCCN)C(=O)N[C@@H](CC(C)C)C(=O)N[C@@H](CCC(N)=O)C(=O)N[C@@H](CC(=O)O)C(=O)N[C@H](C(=O)N[C@@H](Cc1c[nH]cn1)C(=O)N[C@@H](CC(N)=O)C(=O)N[C@@H](Cc1ccccc1)C(=O)N[C@H](C(=O)N[C@@H](C)C(=O)N[C@@H](CC(C)C)C(=O)O)C(C)C)C(C)C)C(C)C [hPTH-1-37] | Only very small amounts of methionine-oxidized metabolites can be detected | –
2 | – | ≦2 min | CC[C@H](C)[C@H](NC(=O)[C@H](CCC(=O)O)NC(=O)[C@H](CO)NC(=O)[C@@H](NC(=O)[C@@H](N)CO)C(C)C)C(=O)N[C@@H](CCC(N)=O)C(=O)N[C@@H](CC(C)C)C(=O)N[C@@H](CCSC)C(=O)N[C@@H](Cc1c[nH]cn1)C(=O)N[C@@H](CC(N)=O)C(=O)N[C@@H](CC(C)C)C(=O)NCC(=O)N[C@@H](CCCCN)C(=O)N[C@@H](Cc1c[nH]cn1)C(=O)N[C@@H](CC(C)C)C(=O)N[C@@H](CC(N)=O)C(=O)N[C@@H](CO)C(=O)N[C@@H](CCSC)C(=O)N[C@@H](CCC(=O)O)C(=O)N[C@@H](CCCNC(=N)N)C(=O)N[C@H](C(=O)N[C@@H](CCC(=O)O)C(=O)N[C@@H](Cc1c[nH]c2ccccc12)C(=O)N[C@@H](CC(C)C)C(=O)N[C@@H](CCCNC(=N)N)C(=O)N[C@@H](CCCCN)C(=O)N[C@@H](CCCCN)C(=O)N[C@@H](CC(C)C)C(=O)N[C@@H](CCC(N)=O)C(=O)N[C@@H](CC(=O)O)C(=O)N[C@H](C(=O)N[C@@H](Cc1c[nH]cn1)C(=O)N[C@@H](CC(N)=O)C(=O)N[C@@H](Cc1ccccc1)C(=O)N[C@H](C(=O)N[C@@H](C)C(=O)N[C@@H](CC(C)C)C(=O)O)C(C)C)C(C)C)C(C)C [highly pure hemoparatide] | only a small amount of methionine-oxidized metabolites appears | high tolerability

From patent US20110263509A1, “PREPARATION AND USE OF HIGH-PURITY HEMOPARATIDE (HPTH-1-37) FOR THE TREATMENT OF INFLAMMATORY SCALING DISEASES OF THE SKIN” (Haemopep Pharma GmbH, priority 2008, published 2011)
